Data from publication doi:10.1101/2024.12.16.628703v1 (bioRxiv, 2024).
Marks after values point to notes of the source that are not given here.

What was measured:
G. oceanica = assay: CPP translocation by flow cytometry; format: cell-based, Gephyrocapsa oceanica; details: for increase in median fluorescence per increase in concentration of 1 µM: regression of titer data, FITC-positive population; for increase in median fluorescence per increase in concentration of 1 µM / regression equation, Median Fluorescence versus CPP concentration: separate experiment; for regression equation, Median Fluorescence versus CPP concentration: titer data 20-320 µM, flow cytometry ex 488 / em 525 nm
E. huxleyi = assay: CPP translocation by flow cytometry; format: cell-based, Emiliania huxleyi; details: for FITC-positive cells / FITC-positive cells achieved over the range tested: titer experiment, flow cytometry, average of 2 experiments; for FITC-positive cells achieved over the range tested: 20 to 320 µM CPP
I. galbana [1] = assay: CPP translocation by flow cytometry; format: cell-based, Isochrysis galbana; details: for translocation (FITC-positive cells) / percentage of cells penetrated (FITC-positive): DOE, trypsin wash; for translocation (FITC-positive cells): FITC-Ahx-CPP 2 µM; for translocation (FITC-positive cells) / percentage of cells penetrated (FITC-positive) / FITC-positive cells achieved over the range tested / FITC-positive cells: flow cytometry; for percentage of cells penetrated (FITC-positive): FITC-Ahx-CPP 10 µM; for FITC-positive cells achieved over the range tested / FITC-positive cells: titer experiment, single experiment; for FITC-positive cells achieved over the range tested: 20 to 320 µM CPP
I. galbana [2] = assay: Viability / cell proliferation after CPP transfection; format: cell-based, Isochrysis galbana; details: growth curve 14 days
animal cells = details: ref [7],[8],[23]; cited from earlier work
algae = details: ref [7],[8],[23]; cited from earlier work
[3] = titer data 20-320 µM, separate experiment, flow cytometry ex 488 / em 525 nm

Sequence | increase in median fluorescence per increase in concentration of 1 µM (G. oceanica) [RFU] | regression equation, Median Fluorescence versus CPP concentration (G. oceanica) | FITC-positive cells (E. huxleyi; 20 µM CPP) | FITC-positive cells (E. huxleyi; 160 µM CPP) | FITC-positive cells (E. huxleyi; 320 µM CPP) | FITC-positive cells achieved over the range tested (E. huxleyi) | translocation (FITC-positive cells) (I. galbana [1]) | percentage of cells penetrated (FITC-positive) (I. galbana [1]) | FITC-positive cells achieved over the range tested (I. galbana [1]) [%] | further results
GRKKRRQRRRPPQ [TAT, transactivating transcriptional activator] | 53 | 10953 + 52.48 * TAT concentration | less than 20% | over 40% | over 60% | < 80% | do not translocate | do not translocate | < 20 | regression equation, Median Fluorescence versus CPP concentration (E. huxleyi; [3]): 15145 + 35.47 * TAT concentration; regression equation, Median Fluorescence versus CPP concentration (I. galbana [1]; [3]): 16534 + 11.73 * TAT concentration
LLIILRRRIRKQAHAHSK [pVEC, murine vascular endothelial cadherin] | 184 | 16133 + 184.1 * pVEC concentration | > 80% | more than 90% | over 95% | more than 80% |  | 39% | 80 | optimal concentration for translocation, irrespective of viability (G. oceanica; titer experiment 20-320 µM): 160 µM; percent-positive achieved over the range tested (G. oceanica; titer experiment, 20 to 320 µM CPP, flow cytometry, average of 2 experiments): more than 80%; effect on median fluorescence with rising concentration (E. huxleyi; titer experiment 20-320 µM): reaches a plateau from 160 to 320 µM; optimal concentration for translocation, irrespective of viability (E. huxleyi; titer experiment 20-320 µM): 160 µM; proliferation of cells sorted for high FITC fluorescence (I. galbana [2]; 160 and 320 µM pVEC, sorted by FACS): proliferation of viable cells; viability after CPP treatment (I. galbana [2]; pVEC at 20 µM, sorted cells): apparent decrease in viability; optimal concentration for translocation, irrespective of viability (I. galbana [1]; titer experiment 20-320 µM): 80 µM; FITC-positive cells (I. galbana [1]; 20 µM CPP): less than 20%; FITC-positive cells (I. galbana [1]; 80 µM CPP): over 90%; FITC-positive cells (I. galbana [1]; 160 µM CPP): approximately 85%
RQIKIWFQNRRMKWKK [pAntp, antennapedia homeodomain] |  |  |  |  |  |  | do not translocate |  |  | cytotoxicity at concentrations as low as (animal cells): 40 µM; cytotoxicity at concentrations as low as (algae): 10 µM
